Experimental data reported in paper PMC3356437 (Peptides, 2012).
Values after ≈ are worked out from the molar mass of the structure shown. Where two headings read alike, the source gives them in different places. Where a SMILES comes first, the peptide text is derived from it.

How the values were obtained:
[1] = system: E. coli DHα5; format: cell-based, Escherichia coli
[2] = system: P. aeruginosa PAO1; format: cell-based, Pseudomonas aeruginosa
[3] = system: P. gingivalis W50; format: cell-based, Porphyromonas gingivalis
[4] = system: red blood cells
[5] = target: T1, LPS-binding protein (LBP) (Homo sapiens, UniProt P18428); assay: LPS binding to LPS-binding protein; conditions: LPS + 180–200 μg/ml GL13K; mean ± SEM, N=3
T1 sequence (P18428 26-481): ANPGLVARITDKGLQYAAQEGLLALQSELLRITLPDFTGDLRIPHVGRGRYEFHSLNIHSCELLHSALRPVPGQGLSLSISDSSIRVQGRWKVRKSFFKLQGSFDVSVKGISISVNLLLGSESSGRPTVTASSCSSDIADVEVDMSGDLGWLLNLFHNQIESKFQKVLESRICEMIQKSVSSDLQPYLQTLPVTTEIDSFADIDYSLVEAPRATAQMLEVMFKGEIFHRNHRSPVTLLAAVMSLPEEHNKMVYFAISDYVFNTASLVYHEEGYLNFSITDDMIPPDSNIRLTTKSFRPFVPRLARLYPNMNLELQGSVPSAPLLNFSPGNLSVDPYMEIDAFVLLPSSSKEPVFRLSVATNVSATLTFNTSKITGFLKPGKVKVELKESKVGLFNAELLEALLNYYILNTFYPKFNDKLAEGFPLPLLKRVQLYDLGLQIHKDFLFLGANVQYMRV

[6] = system: red blood cells; conditions: cited from earlier work
[7] = system: P. gingivalis (53977, DPG3, W50); assay: Bacterial killing assay; format: cell-based, Porphyromonas gingivalis; conditions: three strains, 200 μg/ml peptide, 2 ½ hours, 35°C, CFU
[8] = system: E. coli; format: cell-based, Escherichia coli; conditions: 50% saliva (45% in legend) in PBS, 2 hours, 35°C

Molecule	MIC [1]	MIC, 50% saliva [1]	MIC [2]	MIC ([3]; W50)	Bactericidal activity [7]	Reduction of CFU / bactericidal activity in the presence of saliva [8]	other results
CC[C@H](C)[C@H](NC(=O)[C@H](CCC(N)=O)NC(=O)CN)C(=O)N[C@H](C(=O)N[C@@H](CC(N)=O)C(=O)N[C@@H](CC(C)C)C(=O)N[C@@H](CCCCN)C(N)=O)[C@@H](C)CC [GK7NH2] (H-GQIINLK-NH2)	>200 µg/mL	>167 µg/mL	>167 µg/mL	>167 µg/mL	–	–	–
CC[C@H](C)[C@H](NC(=O)[C@H](CCCCN)NC(=O)CN)C(=O)N[C@H](C(=O)N[C@@H](CCCCN)C(=O)N[C@@H](CC(C)C)C(=O)N[C@@H](CCCCN)C(=O)N[C@@H](C)C(=O)N[C@@H](CO)C(=O)N[C@@H](CC(C)C)C(=O)N[C@@H](CCCCN)C(=O)N[C@@H](CC(C)C)C(=O)N[C@@H](CC(C)C)C(N)=O)[C@@H](C)CC [GL13K] (H-GKIIKLKASLKLL-NH2)	5 µg/mL (≈ 3.51 µM)	50 µg/mL (≈ 35.1 µM)	–	–	–	–	Hemagglutination [4]: did not cause hemagglutination; LBP binding of LPS relative to LPS alone (100%) [5]: 45.3%±9.7% (N=3)
CC[C@H](C)[C@H](NC(=O)[C@H](CCC(N)=O)NC(=O)CN)C(=O)N[C@H](C(=O)N[C@@H](CC(N)=O)C(=O)N[C@@H](CC(C)C)C(=O)N[C@@H](CCCCN)C(=O)N[C@@H](C)C(=O)N[C@@H](CO)C(=O)N[C@@H](CC(C)C)C(=O)N[C@@H](CC(=O)O)C(=O)N[C@@H](CC(C)C)C(=O)N[C@@H](CC(C)C)C(N)=O)[C@@H](C)CC [GL13NH2] (H-GQIINLKASLDLL-NH2)	>200 µg/mL	–	>167 µg/mL	>167 µg/mL	–	–	Hemagglutination (caused, implied by contrast with GL13K) [6]: hemagglutination
CC[C@H](C)[C@H](NC(=O)[C@H](CCCCN)NC(=O)[C@H](CCC(=O)O)NC(=O)[C@H](CCCCN)NC(=O)[C@H](CO)NC(=O)[C@H](CCCCN)NC(=O)[C@H](CCCNC(=N)N)NC(=O)[C@H](Cc1ccccc1)NC(=O)[C@H](Cc1ccccc1)NC(=O)[C@H](CC(=O)O)NC(=O)CNC(=O)[C@H](CC(C)C)NC(=O)[C@@H](N)CC(C)C)C(=O)NCC(=O)N[C@@H](CCCCN)C(=O)N[C@@H](CCC(=O)O)C(=O)N[C@@H](Cc1ccccc1)C(=O)N[C@@H](CCCCN)C(=O)N[C@@H](CCCNC(=N)N)C(=O)N[C@H](C(=O)N[C@H](C(=O)N[C@@H](CCC(N)=O)C(=O)N[C@@H](CCCNC(=N)N)C(=O)N[C@H](C(=O)N[C@@H](CCCCN)C(=O)N[C@@H](CC(=O)O)C(=O)N[C@@H](Cc1ccccc1)C(=O)N[C@@H](CC(C)C)C(=O)N[C@@H](CCCNC(=N)N)C(=O)N[C@@H](CC(N)=O)C(=O)N[C@@H](CC(C)C)C(=O)N[C@H](C(=O)N1CCC[C@H]1C(=O)N[C@@H](CCCNC(=N)N)C(=O)N[C@H](C(=O)N[C@@H](CCC(=O)O)C(=O)N[C@@H](CO)C(=O)O)[C@@H](C)O)C(C)C)[C@@H](C)CC)C(C)C)[C@@H](C)CC [LL-37]	–	–	–	–	killed	less than 90%	MIC ([3]; broth dilution in Pg broth, 10^4 CFU, OD 570 nm, seven independent experiments): 25 µg/mL (≈ 5.56 µM)
polymyxin B	–	–	–	–	ineffective	retained bactericidal activity	–
